Assay: excess molar enthalpy (molar enthalpy of mixing); xn = mol fraction of the nth substance listed
Conditions: Liquid, Flow calorimetry

COC(=O)OC [dimethyl carbonate] + CC(C)O
Conditions | excess molar enthalpy [kcal/mol]
298.15 K, 1000 kPa, x1 = 0.05 | 0.1201
298.15 K, 1000 kPa, x1 = 0.1 | 0.222
298.15 K, 1000 kPa, x1 = 0.15 | 0.3028
298.15 K, 1000 kPa, x1 = 0.2 | 0.3695
298.15 K, 1000 kPa, x1 = 0.25 | 0.4209
298.15 K, 1000 kPa, x1 = 0.3 | 0.4599
298.15 K, 1000 kPa, x1 = 0.35 | 0.4899
298.15 K, 1000 kPa, x1 = 0.4 | 0.5097
298.15 K, 1000 kPa, x1 = 0.45 | 0.5212
298.15 K, 1000 kPa, x1 = 0.5 | 0.5264
298.15 K, 1000 kPa, x1 = 0.55 | 0.5191
298.15 K, 1000 kPa, x1 = 0.6 | 0.5048
298.15 K, 1000 kPa, x1 = 0.65 | 0.4805
298.15 K, 1000 kPa, x1 = 0.7 | 0.4459
298.15 K, 1000 kPa, x1 = 0.75 | 0.4012
298.15 K, 1000 kPa, x1 = 0.8 | 0.3425
298.15 K, 1000 kPa, x1 = 0.95 | 0.1068
313.15 K, 100 kPa, x1 = 0.0483 | 0.1117
313.15 K, 100 kPa, x1 = 0.0998 | 0.2227
313.15 K, 100 kPa, x1 = 0.1507 | 0.3146
313.15 K, 100 kPa, x1 = 0.2011 | 0.388
313.15 K, 100 kPa, x1 = 0.2509 | 0.4473
313.15 K, 100 kPa, x1 = 0.3002 | 0.4924
313.15 K, 100 kPa, x1 = 0.3489 | 0.5277
313.15 K, 100 kPa, x1 = 0.4005 | 0.5535
313.15 K, 100 kPa, x1 = 0.4515 | 0.5679
313.15 K, 100 kPa, x1 = 0.4986 | 0.5718
313.15 K, 100 kPa, x1 = 0.5485 | 0.5651
313.15 K, 100 kPa, x1 = 0.6011 | 0.5502
313.15 K, 100 kPa, x1 = 0.6498 | 0.5244
313.15 K, 100 kPa, x1 = 0.7012 | 0.4887
313.15 K, 100 kPa, x1 = 0.7488 | 0.4419
313.15 K, 100 kPa, x1 = 0.8486 | 0.3137
313.15 K, 100 kPa, x1 = 0.9007 | 0.2235
313.15 K, 100 kPa, x1 = 0.9492 | 0.1156
313.15 K, 1000 kPa, x1 = 0.0483 | 0.1108
313.15 K, 1000 kPa, x1 = 0.0998 | 0.2231
313.15 K, 1000 kPa, x1 = 0.1507 | 0.3136
313.15 K, 1000 kPa, x1 = 0.201 | 0.3871
313.15 K, 1000 kPa, x1 = 0.2508 | 0.4465
313.15 K, 1000 kPa, x1 = 0.3 | 0.4932
313.15 K, 1000 kPa, x1 = 0.3487 | 0.5283
313.15 K, 1000 kPa, x1 = 0.4003 | 0.5534
313.15 K, 1000 kPa, x1 = 0.4513 | 0.5642
313.15 K, 1000 kPa, x1 = 0.4984 | 0.5678
313.15 K, 1000 kPa, x1 = 0.5516 | 0.5622
313.15 K, 1000 kPa, x1 = 0.6009 | 0.5476
313.15 K, 1000 kPa, x1 = 0.6497 | 0.5221
313.15 K, 1000 kPa, x1 = 0.7011 | 0.486
313.15 K, 1000 kPa, x1 = 0.7487 | 0.4405
313.15 K, 1000 kPa, x1 = 0.8486 | 0.3109
313.15 K, 1000 kPa, x1 = 0.9007 | 0.2209
313.15 K, 1000 kPa, x1 = 0.9491 | 0.1173
313.15 K, 10000 kPa, x1 = 0.0517 | 0.1095
313.15 K, 10000 kPa, x1 = 0.0992 | 0.212
313.15 K, 10000 kPa, x1 = 0.1499 | 0.303
313.15 K, 10000 kPa, x1 = 0.2 | 0.3768
313.15 K, 10000 kPa, x1 = 0.2497 | 0.4355
313.15 K, 10000 kPa, x1 = 0.2988 | 0.4813
313.15 K, 10000 kPa, x1 = 0.3508 | 0.5177
313.15 K, 10000 kPa, x1 = 0.3989 | 0.5407
313.15 K, 10000 kPa, x1 = 0.4499 | 0.5557
313.15 K, 10000 kPa, x1 = 0.5003 | 0.5598
313.15 K, 10000 kPa, x1 = 0.5501 | 0.5537
313.15 K, 10000 kPa, x1 = 0.5995 | 0.5393
313.15 K, 10000 kPa, x1 = 0.6515 | 0.5131
313.15 K, 10000 kPa, x1 = 0.6998 | 0.48
313.15 K, 10000 kPa, x1 = 0.7507 | 0.4325
313.15 K, 10000 kPa, x1 = 0.8011 | 0.3729
313.15 K, 10000 kPa, x1 = 0.8509 | 0.3054
313.15 K, 10000 kPa, x1 = 0.9001 | 0.2228
313.15 K, 10000 kPa, x1 = 0.9488 | 0.1259
328.15 K, 1000 kPa, x1 = 0.05 | 0.1293
328.15 K, 1000 kPa, x1 = 0.1 | 0.2339
328.15 K, 1000 kPa, x1 = 0.15 | 0.3279
328.15 K, 1000 kPa, x1 = 0.2 | 0.4052
328.15 K, 1000 kPa, x1 = 0.25 | 0.4674
328.15 K, 1000 kPa, x1 = 0.3 | 0.5156
328.15 K, 1000 kPa, x1 = 0.35 | 0.5557
328.15 K, 1000 kPa, x1 = 0.4 | 0.5822
328.15 K, 1000 kPa, x1 = 0.45 | 0.5962
328.15 K, 1000 kPa, x1 = 0.5 | 0.6034
328.15 K, 1000 kPa, x1 = 0.55 | 0.5992
328.15 K, 1000 kPa, x1 = 0.6 | 0.5851
328.15 K, 1000 kPa, x1 = 0.65 | 0.5559
328.15 K, 1000 kPa, x1 = 0.7 | 0.5128
328.15 K, 1000 kPa, x1 = 0.75 | 0.4679
328.15 K, 1000 kPa, x1 = 0.8 | 0.4034
328.15 K, 1000 kPa, x1 = 0.85 | 0.3257
328.15 K, 1000 kPa, x1 = 0.9 | 0.2299
328.15 K, 1000 kPa, x1 = 0.95 | 0.1163

— the NIST ThermoML archive (doi:10.1021/je050052+)
